# Assay results published in PMC12376627 (2025).
# What was measured:
# [1] = test system: Histamine aptamer (DNA, aptamer) AGCTCCAGAAGATAAATTACAGGGAACGTGTTGGTTGCGGTTCTTCCGATCTGCTGTGTTCTCTATCTGTGCCATGCAACTAGGATACTATGACCCCGG; assay: SPR
# [2] = test system: Histamine pH-sensitive aptamer (DNA, aptamer) AGCTCCAGAAGATAAATTACAGGGAACGTGTTGGTTGCGGTTCTTCCGATCTGCTGTGTTCTCTATCTGTGCCATGCAACTAGGATACTATGACCCCGGTTTCCGGGGTTTTTGGGGCC; assay: CNT FET; settings: 10 nM target; released at acidic pH
# [3] = test system: Dopamine aptamer (DNA, aptamer) CGACGCCAGTTTGAAGGTTCGTTCGCAGGTGTGGAGTGACGTCG; assay: CNT FET sensor array; settings: PC12 culture medium; highest concentration tested 10 nM
# [4] = test system: Serotonin aptamer (DNA, aptamer) CGACTGGTAGGCAGATAGGGGAAGCTGATTCGATGCGTGGGTCG; assay: CNT FET sensor array; settings: PC12 culture medium; highest concentration tested 10 nM
# [5] = test system: Glutamate aptamer (DNA, aptamer) GCATCAGTCCACTCGTGAGGTCGACTGATGAGGCTCGAT; assay: CNT FET sensor array; settings: PC12 culture medium; highest concentration tested 10 nM
# [6] = test system: Serotonin aptamer (DNA, aptamer) CGACTGGTAGGCAGATAGGGGAAGCTGATTCGATGCGTGGGTCG; assay: SPR
# [7] = test system: Serotonin pH-sensitive aptamer (DNA, aptamer) CGACTGGTAGGCAGATAGGGGAAGCTGATTCGATGCGTGGGTCGTTTCGACCTTTCCAGC; assay: CNT FET; settings: 10 nM target; released at acidic pH
# [8] = test system: Histamine aptamer (DNA, aptamer) AGCTCCAGAAGATAAATTACAGGGAACGTGTTGGTTGCGGTTCTTCCGATCTGCTGTGTTCTCTATCTGTGCCATGCAACTAGGATACTATGACCCCGG; assay: CNT FET sensor array; settings: PC12 culture medium; highest concentration tested 10 nM
# [9] = test system: Glutamate aptamer (DNA, aptamer) GCATCAGTCCACTCGTGAGGTCGACTGATGAGGCTCGAT; assay: SPR
# [10] = test system: Glutamate pH-sensitive aptamer (DNA, aptamer) GCATCAGTCCACTCGTGAGGTCGACTGATGAGGCTCGATTTTATCGATTTAGCTA; assay: CNT FET; settings: 10 nM target; released at acidic pH
# [11] = test system: Dopamine aptamer (DNA, aptamer) CGACGCCAGTTTGAAGGTTCGTTCGCAGGTGTGGAGTGACGTCG; assay: SPR
# [12] = test system: Dopamine pH-sensitive aptamer (DNA, aptamer) CGACGCCAGTTTGAAGGTTCGTTCGCAGGTGTGGAGTGACGTCGTTTCGACGCTTTAGCAGC; assay: CNT FET; settings: 0.1x PBS (1x: 137 mM NaCl, 2.7 mM KCl); pH 7.4; 10 nM dopamine; released at acidic pH
SMILES,Kd [1] [µM],binding [2],binding [3],binding [4],binding [5],Kd [6] [µM],binding [7],binding [8],Kd [9] [µM],binding [10],Kd [11] [µM],binding [12]
NCCc1c[nH]cn1,0.015,yes,no,no,no,,,,,,,
NCCc1c[nH]c2ccc(O)cc12,,,no,,no,0.0105,yes,no,,,,
N[C@@H](CCC(=O)O)C(=O)O,,,no,no,,,,no,0.293,yes,,
NCCc1ccc(O)c(O)c1,,,,no,no,,,no,,,0.02,yes
